For three molecules, IC50 results are on record in US9024017B2, “Octahydro-cyclopentapyrrolyl antagonists of CCR2” (Janssen Pharmaceutica NV, priority 2012, dated 2015).

The target of this experiment is T1, CCR2 (Homo sapiens, UniProt P41597).
T1 construct: host or cells: THP-1 (human monocytic cell line)
T1 sequence (P41597 whole entry): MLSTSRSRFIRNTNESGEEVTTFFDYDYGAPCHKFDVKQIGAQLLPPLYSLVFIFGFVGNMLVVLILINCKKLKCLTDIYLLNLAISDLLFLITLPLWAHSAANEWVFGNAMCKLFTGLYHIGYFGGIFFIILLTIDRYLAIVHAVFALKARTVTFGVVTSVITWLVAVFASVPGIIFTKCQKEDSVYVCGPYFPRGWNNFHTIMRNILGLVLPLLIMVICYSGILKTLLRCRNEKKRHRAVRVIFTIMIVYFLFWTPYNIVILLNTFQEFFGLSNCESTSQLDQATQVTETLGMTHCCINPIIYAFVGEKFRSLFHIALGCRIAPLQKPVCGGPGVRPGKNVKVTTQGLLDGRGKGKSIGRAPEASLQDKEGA
In words: MCP-1 Receptor Binding Assay in THP-1 Cells. The conditions noted are these: read-out: MCP1B_v3 IC50. An outline of the steps:
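Human monocytic THP-1 cells incubated 2 h at 30 °C with 0.5 nM 125I-MCP-1 and varying concentrations of test compound or unlabelled MCP-1. Cells filter-harvested and counted by scintillation; blank subtracted, compared with vehicle; nonspecific binding with 1 μM cold MCP-1.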
In general, IC50 refers to the point on the concentration scale where inhibition reaches its midpoint. For `CO[C@@H]1COCC[C@@H]1N[C@@H]1C[C@H]2CN(C(=O)OCCC3CCOCC3)C[C@@]2(C(=O)N2CCc3ncc(C(F)(F)F)cc3C2)C1` [Example 43, (3aR,5R,6aR)-2-(Tetrahydro-2H-pyran-4-yl)ethyl 5-(((3S,4S)-3-methoxytetrahydro-2H-pyran-4-yl)amino)-3a-(3-(trifluoromethyl)-5,6,7,8-tetrahydro-1,6-naphthyridine-6-carbonyl)hexahydrocyclopenta[c]pyrrole-2(1H)-carboxylate], the half-maximal inhibitory concentration (IC50) is 30 nM.

As to `CO[C@H]1COCC[C@H]1N[C@@H]1C[C@H]2CN(C(=O)OCCC3CCOCC3)C[C@@]2(C(=O)N2CCc3ncc(C(F)(F)F)cc3C2)C1` [Example 44, (3aR,5R,6aR)-2-(Tetrahydro-2H-pyran-4-yl)ethyl 5-(((3R,4R)-3-methoxytetrahydro-2H-pyran-4-yl)amino)-3a-(3-(trifluoromethyl)-5,6,7,8-tetrahydro-1,6-naphthyridine-6-carbonyl)hexahydrocyclopenta[c]pyrrole-2(1H)-carboxylate], the IC50 turned out to be 80 nM.

With `COC1COCCC1N[C@@H]1C[C@H]2CN(C(=O)OCc3cccc(C#N)c3)C[C@@]2(C(=O)N2CCc3ncc(C(F)(F)F)cc3C2)C1` (stereo partly drawn) [Example 59, (3aR,5R,6aR)-3-Cyanobenzyl 5-((3-methoxytetrahydro-2H-pyran-4-yl)amino)-3a-(3-(trifluoromethyl)-5,6,7,8-tetrahydro-1,6-naphthyridine-6-carbonyl)hexahydrocyclopenta-[c]pyrrole-2(1H)-carboxylate], the concentration for half-maximal inhibition (IC50) is 220 nM.
